Laboratory results taken from article PMC7735731, “Application of Magnetic Core–Shell Imprinted Nanoconjugates for the Analysis of Hordenine in Human Plasma-Preliminary Data on Pharmacokinetic Study after Oral Administration” (Journal of Agricultural and Food Chemistry, 2020).
In brackets after ≈: the same amount, converted by molar mass. Several values for one entry are separate records, joined by “and”; a condition that tells them apart may be missing. Equal entries are not always repeated.

Columns and labels:
[1] = set-up: method as in PMID 25880244; conditions: rats, cited from earlier work
[2] = cited from earlier work
[3] = four volunteers, 1 L of beer with hordenine content 6.30 ± 0.19 mg/L; cited from earlier work
[4] = Pharmacokinetic study in healthy volunteers after oral administration of hordenine-rich dietary supplement (plasma, mag-MIP d-SPE, LC-MS/MS); format: in vivo, human
Method: Quantitative analysis was performed using an Agilent 1260 Infinity system (Agilent Technologies, Santa Clara, CA, United States, https://www.agilent.com), equipped with a degasser, an autosampler, and a binary pump coupled to a QTRAP 4000 hybrid triple quadrupole/linear ion trap mass spectrometer (AB Sciex, Framingham, MA, United States, https://sciex.com). The turbo ion spray source was operated in positive mode. The curtain gas, ion source gas 1, ion source gas 2, and collision gas (all high-purity nitrogen) were set at 345, 207, 276 kPa, and “high” instrument units (4.6 × 10^–5 Torr), respectively. The ion spray voltage and source temperature were 5000 V and 600 °C, respectively. The target compounds were analyzed in multiple reaction monitoring mode. The quantitative multiple reaction monitoring transitions, declustering potential (DP) and collision energy (CE) for hordenine and hordenine-d6 were (m/z) 166 > 121 (DP = 61 V, CE = 21 V) and 172 > 121 (DP = 66 V, CE = 19 V), respectively. […] The column was maintained at 40 °C at the flow rate of 0.5 mL/min. The mobile phases consisted of 20 mM aqueous ammonium acetate as eluent A and acetonitrile with 0.2% formic acid as eluent B. The gradient (% B) was as follows: 0 min 10%, 1 min 10%, 3 min 95%, and 5 min 95%. The reequilibration of the column to the initial conditions lasted 1.5 min.
For the optimization of the d-SPE process, a mass of 5 mg of mag-MIP was transferred to an Eppendorf tube together with a volume of 300 μL of untreated plasma sample (or in the optimization process: sample diluted with water or sample pretreated with methanol (1:1, v/v)). A sample of plasma pretreated with methanol was centrifuged (10 000g, 5 min) prior to loading to mag-MIP together with 30 μL of IS (c = 50 μg/L). Next, the tube was put on the vortex to provide contact time with the sorbent for 5 min (in the optimization of loading time, the step lasted 5, 15, 30, or 60 min). Then, the supernatant, separated from the sorbent by an external magnetic field, was discarded and the washing step was carried out by applying water, 300 μL of ultrapure water for 0.5 min on the vortex (or in the optimization process, methanol–water 85:15 v/v). The supernatant was removed in the same manner as described above. Finally, the elution took place by adding 500 μL of 5% ammonium hydroxide in methanol. The elution time was set for 5 min (in the optimization process, the step lasted 5, 15, 30, or 60 min). The elution fraction was separated from the sorbent by the application of an external magnetic field. In each optimized step, the recoveries of hordenine were analyzed. The eluate was evaporated to dryness (40 °C, 5 min), reconstituted in a volume of 70 μL of 20% aqueous methanol, and an aliquot of 10 μL was injected into the LC–MS/MS. Each experiment was performed in triplicate. The recovery was calculated by comparing the mean area response of plasma sample spiked before and after extraction.
Three healthy volunteers (men, aged 25–30 years) were enrolled in this study after obtaining written informed consent. All participants were nonsmokers with body weight no less than 50 kg and body mass index 25.7 ± 3.7 kg/m^2. Their body weights were 80 kg (two volunteers) and 105 kg (one volunteer). Subjects neither consumed alcohol nor received any medication for 2 weeks prior to the start of the study. Hordenine was administered orally in the morning with a dose of 100 mg (in starch capsules) after overnight fasting. Plasma samples of approximately 2 mL were collected (in vials containing di-potassium ethylene diaminetetraacetic acid as an anticoagulant) before and at 20, 30, 45, 60, 75, 90, 120, 180, and 240 min post-dose. After collection, plasma samples were centrifuged at 2000g for 15 min at room temperature and plasma samples were analyzed. […]

[5] = Stability of the analyte in the biological matrix (human plasma) and the extract; format: in vitro ADME; conditions: for stability in extract in the autosampler: 48 h, 4 °C; for stability after short-term storage at room temperature / stability after freeze–thaw cycles: human plasma; for stability after short-term storage at room temperature: 4 h, 21 ± 2 °C; for stability after freeze–thaw cycles: three cycles at −20 °C storage, 25 °C thawing
Method: Selectivity was evaluated using six blank plasma samples, which were evaluated for interference from the matrix components in the determination of hordenine. The accuracy and precision of the method were determined within runs (n = 5) and between runs (n = 15, five replicate samples on three separate runs) using quality control (QC) samples (0.1, 25, and 40 μg/L). Accuracy was expressed as percent relative error of the spiked nominal value, whereas precision was expressed as relative standard deviation (RSD). The linearity range was set between 0.05 and 50 μg/L. Eight point calibration lines (n = 3) were constructed by plotting peak area ratios of each targeted analyte to an area of IS versus the nominal concentration of the analyte. LLOQ was selected to give the signal at least five times higher than the signal of blank samples and satisfactory results of accuracy and precision. LLOQ, QCs, and calibration standards were prepared on blank plasma. The matrix effect was evaluated by analyzing low and high QCs using plasma from six different lots and included hemolyzed and hyperlipidemic plasma samples. Matrix factor (MF) was determined by calculating the ratio of the peak area in the presence of matrix (blank plasma spiked with the analyte post extraction) to the peak area in the absence of matrix (pure solution of the analyte). Additionally, the coefficient of variation (CV) of the IS-normalized MF (expressed as the MF of analyte divided by the MF of IS) was presented. All stability studies were performed at low and high QCs. The autosampler stability was determined after 48 h of extract storage in an autosampler (4 ± 0.5 °C). The freeze and thaw stabilities were determined in a process of three freeze–thaw cycles at −20 ± 2 °C storage temperature and 25 ± 0.5 °C thawing temperature, at least 12 h after freezing. The short-term stability was determined after 4 h of storage at room temperature, 21 ± 2 °C. Carryover was studied by injecting blank plasma sample after calibration standard at 40 μg/L

dopamine D2 receptor = target: dopamine D2 receptor; set-up: method as in PMID 28281694; conditions: cited from earlier work
[6] = Pharmacokinetic profile of hordenine in plasma after alcohol free beer consumption by one volunteer; format: in vivo, human
Source text: It is known that hordenine levels in plasma after beer consumption are low.[10] Thus, to verify the newly proposed analytical method as well as to reveal its applicability, the evaluation of hordenine pharmacokinetics profiles after beer consumption was also investigated. The results are presented in Supporting Information Section S2.
Determination of pharmacokinetic profile after beer consumption
In order to reveal the applicability of new analytical method, the comparative studies of hordenine pharmacokinetic after alcohol free beer consumption was performed. Firstly we confirmed the presence of hordenine in the beverage since no data on hordenine content in alcohol free beer exist. Then the volunteer consumed 0.5 L of beer within 5 min. The blood was collected 10 min., 20 min., 30 min., 45 min., 1 h, 2 h, 4 h, and 6 h after the beginning of beer […]
Regarding alcohol free beer the hordenine content was 1.3 mg/L for Karmi Classic, 1.2 mg/L for Żywiec, 2.5 mg/L for Heineken zero, 2.3 mg/L for Lech. Thus, for further experiments Heineken zero was selected. […]
distribution Vz/F 1810 L. We confirmed the results of Sommer et al. (2020) that the Cmax is too low to directly interact with D2 receptors. One of the explanation of the lower Cl/F and Vz/F than obtained for supplement can be higher bioavailability of hordenine form beer than supplements and/or non linear pharmacokinetics. Thus, further study are needed.
Figure A. Mean plasma concentration-time profile of hordenine after beer consumption by one

[7] = Simple allometric scaling of rat t1/2 to human; conditions: from rat t1/2 4.6 ± 1.6 h with t1/2(Human) ∼ 4t1/2(Rat)
Source text: However, further studies are required.

[8] = weak base; source not given; cited from earlier work
[9] = human plasma, single oral dose 100 mg hordenine, three healthy volunteers, mean
[10] = male, human, plasma, single oral dose 100 mg hordenine, three healthy volunteers, mean

CN(C)CCc1ccc(O)cc1 [hordenine, 4-(2-dimethylaminoethyl)phenol]
t1/2 (hordenine elimination) ([1]; oral administration, dose of 15 mg/kg): 4.6 ± 1.6 h | bioavailability [1]: 66.2% | blood–brain barrier crossing [2]: can cross the blood–brain barrier | maximum plasma concentrations [3]: 1.98 to 2.85 µg/L | AUCt [4, 9]: 1390 µg·min/L | AUCt norm (body weight normalized) [4, 9]: 16.5 µg·min/L/kg | AUC∞ [4, 9]: 1440 µg·min/L | AUC∞ norm (body weight normalized) [4, 9]: 17.1 µg·min/L/kg | concentration at 1 h ([4]; male, human, in vivo, plasma collected at 1 h after administration of 100 mg of hordenine, read-out: calculated concentration in test plasma): 8.7 ng/mL | Cmax [4, 10]: 16.4 ng/mL | MRT inf [4, 10]: 1.88 h | MRT last [4, 10]: 1.7 h | Tmax [4, 10]: 1.08 h | CL/F ([4]; male, human, plasma, single oral dose 100 mg hordenine, three healthy volunteers, mean, read-out: Cl/Fnorm (body weight normalized) (converted)): 850 mL/min/kg | Vd/F ([4]; male, human, plasma, single oral dose 100 mg hordenine, three healthy volunteers, mean, read-out: Vz/F (apparent distribution volume)): 6000 L | Vd/F ([4]; male, human, plasma, single oral dose 100 mg hordenine, three healthy volunteers, mean, read-out: Vz/Fnorm (body weight normalized)): 66 L/kg | half-life ([4]; male, human, plasma, single oral dose 100 mg hordenine, three healthy volunteers, mean, read-out: t1/2 (terminal half-life)): 0.9 h | Cl/F (apparent plasma clearance) ([4]; single oral dose 100 mg hordenine, three healthy volunteers, mean): 4700 ± 1700 L/h and 4700 L/h | stability in extract in the autosampler ([5]; QC1 (0.1 μg/L)): 94% | stability in extract in the autosampler ([5]; QC3 (40 μg/L)): 110% | stability after short-term storage at room temperature ([5]; QC1 (0.1 μg/L)): 103% | stability after freeze–thaw cycles ([5]; QC1 (0.1 μg/L)): 108% | stability after short-term storage at room temperature ([5]; QC3 (40 μg/L)): 107% | stability after freeze–thaw cycles ([5]; QC3 (40 μg/L)): 104% | EC50 (dopamine D2 receptor): 0.61 µg/mL (≈ 3.69 µM) | apparent oral clearance (Cl/F) ([6]; 0.5 L alcohol free beer (hordenine 2.5 mg/L)): 2320 L/h | time to reach Cmax ([6]; 0.5 L alcohol free beer, from the beginning of beer consumption): 25 min | Cmax ([6]; human, plasma, oral, 1.25 mg, 0.5 L alcohol free beer (Heineken zero, hordenine 2.5 mg/L)): 0.4 ng/mL | Vd/F ([6]; human, plasma, oral, 1.25 mg, 0.5 L alcohol free beer (hordenine 2.5 mg/L), read-out: volume of distribution Vz/F): 1810 L | estimated t1/2(Human) by allometric scaling [7]: 1.15 ± 0.4 h | pKa of the strongest bases [8]: 9.19
